Results reported in patent publication US9750249B2, “Synergistic paraffinic oil and boscalid fungicides” (priority 2010, dated 2017).

System: dollar spot
Test: Field trial: dollar spot counts on putting-green plots
Type: in vivo, Sclerotinia homoeocarpa
Conditions: Table 2a; combination even with half the recommended application rate of boscalid
Source text: Studies were established in a completely randomized design with three replications. The treatments included an untreated (fertilizer only) treatment and twenty-three rate/interval combinations of Civitas™ and Emerald™. The label-recommended rates of Civitas™ application to control dollar spot on turfgrass are 8-32 oz/1000 sq.ft. The label-recommended rate of Emerald™ application to control dollar spot on turfgrass is 0.13 oz/1000 sq.ft.
Initial treatments were made on June 16 and continued for 15 weeks (final treatments were made on September 27). […]
Precipitation was such that supplemental irrigation was not required on a regular basis. […] Treatment differences at individual measurement events were evaluated using analysis of variance and Fisher's protected least significant difference (LSD). […]
Applying the approach to identifying synergy as set out in S. R. Colby, “Calculating synergistic and antagonistic responses of herbicide combinations”, Weeds 15, 20-22 (1967), expected efficacy, E, may be expressed as: E=X+Y(100−X)/100, where X is the efficacy, expressed in % of the untreated control, of the first composition (boscalid), and Y is the efficacy, expressed in % of the untreated control, of the second composition (Civitas).

Structure (SMILES): O=C(Nc1ccccc1-c1ccc(Cl)cc1)c1cccnc1Cl [boscalid, 2-chloro-N-(4′-chloro[1,1′-biphenyl]-2-yl)-nicotinamide]
- sustained elimination of dollar spot: neither boscalid alone nor CIVITAS alone are capable of sustained elimination of dollar spot
